“And” between values parts separate entries of the source, which are not always exact repeats. Identical values can stand only once. Like-named read-outs stand apart in the source and are kept apart here. Where a SMILES comes first, the peptide text is derived from it. The star is where a group is joined. Myristoyl = CCCCCCCCCCCCCC(=O)*
Assays:
[1] = test system: SARS-CoV-2; set-up: species or system golden Syrian hamsters; details: hamster, in vivo
[2] = test system: lung bronchiole and alveoli cell types; assay: Cell type deconvolution analysis of NanoString DSP data; assay type: in vivo, golden Syrian hamsters; set-up: cell type proportion: macrophages: unit not given here; details: for cell type proportion: B / cell type proportion: NK / cell type proportion: T / cell type proportion: Treg / cell type proportion: endothelial / cell type proportion: fibroblasts / cell type proportion: mDCs / cell type proportion: macrophages / cell type proportion: mast / cell type proportion: monocytes / cell type proportion: neutrophils / cell type proportion: pDCs / cell type proportion: plasma: individual ROIs of H023 and H017
Description: Cell type deconvolution analysis was performed using R package SpatialDecon[68]. The Q3 normalized count matrix from NanoString DSP data and the safeTME[68] immune cell profile matrix were used as the query and reference input, respectively, to reveal cell type abundance within each of the selected ROIs. Cell type proportion for each selected ROI was visualized using a stack bar plot, where ROIs were grouped by tissue region (bronchioles vs. alveoli) and experimental condition (control and NACE2i-treated samples). In addition, given the non-normal distribution of the data, the Wilcoxon test was performed to compare each cell type proportion in controls against NACE2i-treated ROIs. The distribution of each cell type and p-value for the comparisons were visualized in box plots.

[3] = test system: importin-α ΔIBB protein / ACE2 FITC peptide (ACE2-IMPα complex); assay: Fluorescence polarization competition assay; assay type: binding; details: Fig. 1b, c: EMSA, microscale thermophoresis and fluorescence polarization
Description: Fluorescence polarization assays were performed using the CLARIOstar Plus plate reader (BMG Labtech, Ortenberg, Germany) with the fluorescein-Ahx-tagged ACE2 peptide sequence ^766[…]^779 manufactured by GeneScript Biotech (Piscataway, NJ), NACE2i peptide sequence MYR-[…]-OH manufactured by Mimitopes Pty Ltd (Melbourne, Australia), and recombinantly expressed importin-α ΔIBB protein. Each assay contained 50 nM ACE2 FITC, 10 μM importin-α ΔIBB protein, and two-fold serially-diluted NACE2i (starting concentration 400 μM) across 10 wells in a total volume of 200 μL. Fluorescence polarization readings were taken using 96-well black Fluotrac microplates (Greiner Bio-One, Kremsmünster, Austria). Assays were repeated in triplicate and contained a negative control (no inhibitor) and blank (no importin-α ΔIBB protein). Triplicate data were normalized and fitted to a single inhibition curve using GraphPad Prism (GraphPad Software, La Jolla, CA).

[4] = test system: SARS-CoV-2; assay type: in vivo, golden Syrian hamsters
[5] = set-up: species or system golden Syrian hamsters; details: hamster, in vivo

## CCCCCCCCCCCCCC(=O)N[C@H](C(=O)NCC(=O)N[C@H](C(=O)N[C@@H](CCCNC(=N)N)C(=O)N[C@@H](CC(=O)O)C(=O)N[C@@H](CCCNC(=N)N)C(=O)N[C@@H](CCCCN)C(=O)N[C@@H](CCCCN)C(=O)N[C@@H](CCCCN)C(=O)N[C@@H](CC(N)=O)C(=O)N[C@@H](CCCCN)C(=O)N[C@@H](C)C(=O)N[C@@H](CCCNC(=N)N)C(=O)N[C@@H](CO)C(=O)O)[C@@H](C)CC)[C@@H](C)O [NACE2i] (Myristoyl-TGIRDRKKKNKARS-OH)
[1]
  lung infectious titers (TCID50): significantly reduced
[2]; Alveoli_NACE2i
  cell type proportion: B: 23.6847 and 32.4439 and 22.6247 and 29.4388 and 26.4374 and 25.048 and 27.5277 and 28.9903 and 27.2409 and 34.2892 and 28.9637 and 28.8675
  cell type proportion: NK: 17.1939 and 16.5847 and 20.9543 and 18.0108 and 22.2943 and 18.4617 and 20.087 and 18.6524 and 17.3616 and 14.6317 and 17.3619 and 17.6717
  cell type proportion: T: 16.6413 and 6.4009 and 15.4997 and 7.4175 and 8.025 and 5.045 and 6.1551 and 0 (2×) and 10.2833 and 5.973 and 3.9643
  cell type proportion: Treg: 0 (6×) and 1.553 and 8.1921 and 4.323 and 1 and 11.0807 and 5.06
  cell type proportion: endothelial: 28.1806 and 29.4553 and 29.583 and 29.8626 and 25.5168 and 33.6067 and 33.1024 and 36.1595 and 33.2493 and 33.1189 and 27.1461 and 36.2683
  cell type proportion: fibroblasts: 1.176 and 0.714 and 0.4633 and 0.8459 and 0.7981 and 0.4825 and 0.7109 and 0.76 and 1.098 and 0.6031 and 0.7444 and 1.019
  cell type proportion: mDCs: 0 (10×) and 0.2521 and 0.6557
  cell type proportion: macrophages: 5.388 and 3.326 and 1.773 and 2.095 and 8.024 and 0.205 and 7.196 and 5.143 and 2.92 and 3.5372 and 2.755 and 4.269
  cell type proportion: mast: 3.016 and 2.78 and 3.108 and 4.739 and 2.682 and 3.555 and 2.55 and 3.279 and 2.68 and 3.582 and 4.658 and 2.8819
  cell type proportion: monocytes: 0.03537 and 0 (11×)
  cell type proportion: neutrophils: 1.753 and 2.9035 and 1.994 and 3.2852 and 1.817 and 0.9729 and 2.361 and 0.2488 and 2.135 and 0.8335 and 0.7054 and 0.8644
  cell type proportion: pDCs: 0
  cell type proportion: plasma: 2.932 and 5.391 and 3.999 and 2.753 and 4.405 and 4.431 and 0.3105 and 2.193 and 2.376 and 2.431 and 2.621 and 3.0985
[2]; Bronchiole_NACE2i
  cell type proportion: B: 0 (4×) and 36.4151 and 8.716 and 15.9886 and 32.8168 and 11.1034 and 35.5652 and 45.4372 and 7.351
  cell type proportion: NK: 23.9964 and 22.2229 and 20.8895 and 32.9425 and 10.1656 and 15.473 and 6.835 and 10.348 and 25.7402 and 11.1678 and 15.6048 and 32.6588
  cell type proportion: T: 18.2436 and 18.4266 and 38.1438 and 0 (3×) and 5.53 and 45.4382 and 35.2758 and 13.8104 and 20.1994 and 29.1879
  cell type proportion: Treg: 0 (5×) and 21.836 and 33.8509 and 20.1505 and 4.85 and 5.947 and 12.5635 and 16.1845
  cell type proportion: endothelial: 16.4013 and 5.225 and 10.2999 and 2.966 and 17.2008 and 10.2265 and 6.188 and 5.584 and 8.968 and 11.6958 and 12.5764 and 14.8185
  cell type proportion: fibroblasts: 2.825 and 0.8593 and 2.185 and 1.129 and 1.957 and 1.105 and 1.635 and 0.3982 and 0.8306 and 1.6 and 2.113 and 2.3944
  cell type proportion: mDCs: 0 (10×) and 0.9775 and 1.142
  cell type proportion: macrophages: 5.529 and 0 and 0.1628 and 4.651 and 2.104 and 14.1819 and 29.1261 and 22.5397 and 28.7793 and 1.462 and 3.082 and 5.048
  cell type proportion: mast: 7.052 and 8.207 and 2.9723 and 2.068 and 4.233 and 1.198 and 2.171 and 3.272 and 0 and 1.897 and 1.1071 and 8.014
  cell type proportion: monocytes: 0 (11×) and 0.2701
  cell type proportion: neutrophils: 9.945 and 11.5606 and 12.9563 and 15.2877 and 1.922 and 0 and 1.136 and 5.344 and 0.585 and 0.3256 and 4.512 and 3.83
  cell type proportion: pDCs: 0.5957 and 4.06 and 4.2347 and 0 (6×) and 1.875 and 1.074 and 1.693
  cell type proportion: plasma: 15.4112 and 7.333 and 8.156 and 7.105 and 0.3226 and 1.788 and 1.644 and 1.037 and 2.72 and 1.151 and 2.026 and 6.866
[2]; infected hamsters 2 dpi
  NK cells in bronchiolar regions: increased
  macrophages in bronchiolar regions: significantly decreased
[3]
  inhibition of the ACE2-IMPα complex in vitro: directly inhibiting the ACE2-IMPα complex
[4]; hamster, in vivo
  viral RNA in the lungs: significant reductions
[4]; n=7, 15 mg/kg
  decrease in lung viral RNA normalized to vehicle controls: 88%
[4]; n=8, 100 mg/kg
  decrease in lung viral RNA normalized to vehicle controls: 96%
[5]
  decrease in mean body weights: lower than vehicle controls

From publication PMC10300102, “In vivo inhibition of nuclear ACE2 translocation protects against SARS-CoV-2 replication and lung damage through epigenetic imprinting” (Nature Communications, 2023)
